Where “and” joins values, the source holds several entries; their conditions need not be identical. Equal entries are not always repeated. Calls of active or inactive are those of the source.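 The calls were made as follows: active = compounds with IC50 below 20 µM; inactive = the rest.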

For this test, the target named is Type-1 angiotensin II receptor (Homo sapiens) (UniProt P30556). The experiment in a line: AT1 receptor antagonists, beta-arrestin recruitment, SAR follow-up, selectivity assay for APJ antagonist project, cell-based, CHO-K1 PathHunter, luminescence (AID 488810).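 Also: agonist challenge with angiotensin II at 50 nM final near its EC80.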 As to conditions: CHO-K1 AGTR1 PathHunter beta-arrestin, antagonist mode.
Type-1 angiotensin II receptor (Homo sapiens), sequence (P30556 whole entry, looked up): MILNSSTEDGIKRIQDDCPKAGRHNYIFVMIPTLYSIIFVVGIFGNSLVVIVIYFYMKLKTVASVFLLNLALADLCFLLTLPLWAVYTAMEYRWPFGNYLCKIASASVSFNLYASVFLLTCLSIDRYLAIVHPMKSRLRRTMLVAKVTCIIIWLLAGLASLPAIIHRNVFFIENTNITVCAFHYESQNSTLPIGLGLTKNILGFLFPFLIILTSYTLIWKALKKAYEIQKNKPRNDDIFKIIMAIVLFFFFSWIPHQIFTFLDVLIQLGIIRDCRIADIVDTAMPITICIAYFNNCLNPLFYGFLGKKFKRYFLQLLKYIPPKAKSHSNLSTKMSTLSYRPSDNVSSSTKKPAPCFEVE
For `CC(=O)Oc1cc2c(cc1Cl)C(c1ccccc1Cl)CC1(CC(C)(C)NC(=S)N1)O2` (centres undefined), the IC50 result is “inactive”.

Consider `Cc1ccnc(SCc2cc(=O)c(OC(=O)c3cccc(Cl)c3)co2)n1`, for which the IC50 is > 79 µM (inactive).

On to `O=C(CNc1ccc(Br)cc1)c1ccccc1`, for which the IC50 was 2.66 µM.

Regarding `O=C1Nc2ccccc2C1=Nc1ccc(F)cc1`, the IC50 is 9.49 µM.

For `Cc1ccc(N=C2C(=O)Nc3ccc(Br)cc32)cc1`, the IC50 is 3.92 µM.

For the compound `COC(=O)C1NN=C(C(=O)c2ccc(Cl)cc2)C1c1ccc(OC)cc1` (centres undefined), the IC50 is 16.1 µM.

With `C=CCSC1=NC2(CC(c3ccc(C)cc3)c3c(C)cc(OC(C)=O)cc3O2)CC(C)(C)N1` (centres undefined), the IC50 is > 79 µM (inactive).

With `COc1ccc(C2CC3(CC(C)(C)NC(=S)N3)Oc3cc(OC(C)=O)cc(C)c32)cc1` (centres undefined), the IC50 was > 79 µM (inactive).

On to `COc1cccc(C(=O)Oc2coc(CSc3nccc(C)n3)cc2=O)c1`, for which the IC50 was > 79 µM (inactive).

As for `CC(C)N1CCc2c(sc(NC(=O)c3cc(-c4cccs4)nc4ccccc34)c2C(N)=O)C1`, the IC50 entry was “inactive”.

With `COc1ccccc1NCC(=O)c1ccc(Cl)cc1`, the 50% inhibitory concentration (IC50) is 1.93 µM and 2.19 µM.

Take `Cc1cc(C)nc(SCc2cccc(O)c2)n1`: the IC50 was > 79 µM (inactive).

Consider `Cc1ccnc(SCc2cc(=O)c(OC(=O)c3cc(Cl)ccc3[N+](=O)[O-])co2)n1`, for which the IC50 entry is “inactive”.

In the case of `CC(C)OC(=O)CN1C(=O)C(=O)c2ccccc21`, the IC50 was 4.99 µM and > 79 µM (inactive).

For `Cc1ccnc(SCc2cc(=O)c(OC(=O)c3ccc(Cl)cc3)co2)n1`, the IC50 is > 79 µM (inactive).

For `O=C(Oc1coc(CSc2ncccn2)cc1=O)c1ccc(S(=O)(=O)N2CCCC2)cc1`, the IC50 is > 79 µM (inactive).

For the compound `S=C1NCCc2ccccc2C1c1ccccc1Cl` (centres undefined), the IC50 is 16.5 µM.

Regarding `CC(C)(C)c1ccc(-n2nc(C#N)c(Cl)cc2=O)cc1`, the IC50 was 8.21 µM.

Regarding `Cc1cc(C)nc(SCc2cc(=O)c(OC(=O)c3cc(Cl)ccc3[N+](=O)[O-])co2)n1`, the IC50 result was “inactive”.

On to `Cc1cc(C)nc(NNS(=O)(=O)c2c(F)cc(F)cc2Br)n1`, for which the 50% inhibitory concentration (IC50) was 5.01 µM.

Turning to `Cc1cc(C)nc(NNS(=O)(=O)c2ccc(F)c(Cl)c2)n1`, the IC50 is 3.78 µM.

For `Cc1ccnc(SCc2cc(=O)c(OC(=O)c3ccccc3C)co2)n1`, the IC50 was > 79 µM (inactive).

Take `Cc1ccnc(SCc2cc(=O)c(OC(=O)c3ccc(C)c([N+](=O)[O-])c3)co2)n1`: the IC50 was > 79 µM (inactive).

As for `Cc1ccnc(SCc2cc(=O)c(OC(=O)c3ccc(S(=O)(=O)N4CCCC4)cc3)co2)n1`, the IC50 is > 79 µM (inactive).

On to `Cc1cc(C)nc(SCc2cc(=O)c(OC(=O)c3ccc(Cl)c([N+](=O)[O-])c3)co2)n1`, for which the IC50 was > 79 µM (inactive).

As to `COc1ccc(C2CC3(CC(C)(C)NC(=S)N3)Oc3cc(O)cc(C)c32)cc1` (centres undefined), the IC50 was > 79 µM (inactive).

For the compound `COc1ccccc1NCC(O)c1ccc(Cl)cc1` (centres undefined), the IC50 is > 79 µM (inactive).

As to `CC1(C)CC2(CC(c3ccccc3Cl)c3cc(Cl)c(OC(=O)C4CC4)cc3O2)NC(=S)N1` (centres undefined), the IC50 is > 79 µM (inactive).

Take `O=C(Oc1coc(CSc2ncccn2)cc1=O)c1cccc([N+](=O)[O-])c1`: the IC50 is > 79 µM (inactive).

`C=CCOc1cccc(CSc2nccc(C)n2)c1`: the IC50 is > 79 µM (inactive).

On to `Cc1ccc(C)c(NCC(=O)c2ccc(Cl)cc2)c1`, for which the IC50 was 1.27 µM.

For the compound `COc1ccc(S(=O)(=O)NNc2nc(C)cc(C)n2)cc1[N+](=O)[O-]`, the IC50 result was “inactive”.

With `CC(=O)c1ccc(N=C2C(=O)Nc3ccccc32)cc1`, the 50% inhibitory concentration (IC50) was 1.29 µM.

Regarding `Oc1cccc2ccc(/C=C/c3ccccc3Cl)nc12`, the IC50 is 17 µM.

`Cc1ccnc(SCc2cc(=O)c(OCc3ccccc3)co2)n1`: the IC50 was > 79 µM (inactive).

Regarding `CCOc1ccc(C(=O)Oc2coc(CSc3ncccn3)cc2=O)cc1`, the IC50 is > 79 µM (inactive).

As to `O=C(COC(=O)c1ccncc1)c1ccc(Cl)c(Cl)c1`, the IC50 is 19.8 µM.

Take `O=C(Oc1coc(CSc2ncccn2)cc1=O)c1ccc(S(=O)(=O)N2CCOCC2)cc1`: the IC50 is > 79 µM (inactive).

As to `O=C(COC(=O)c1cnccn1)c1ccc(Cl)c([N+](=O)[O-])c1`, the half-maximal inhibitory concentration (IC50) is 9.73 µM.

Take `COc1cccc(/C=C/c2ccc3cccc(O)c3n2)c1OC`: the concentration for half-maximal inhibition (IC50) is 14.1 µM.

Take `CCC1CCCCN1CC(=O)c1ccc(OC(F)F)cc1` (centres undefined): the IC50 entry was “inactive”.

`O=C(Oc1coc(CSc2ncccn2)cc1=O)c1cc(Cl)ccc1[N+](=O)[O-]`: the IC50 entry is “inactive”.

As for `Cc1c(C(=O)Oc2coc(CSc3ncccn3)cc2=O)cccc1[N+](=O)[O-]`, the IC50 is > 79 µM (inactive).

Regarding `Cc1cc(C)nc(SCc2ccc(OC(=O)c3ccccc3)c(Cl)c2)n1`, the IC50 is > 79 µM (inactive).

With `Cc1ccc(C(=O)Oc2coc(CSc3ncccn3)cc2=O)cc1[N+](=O)[O-]`, the IC50 is > 79 µM (inactive).

For the compound `Cc1ccc(NCC(O)c2ccccc2)cc1` (centres undefined), the IC50 is > 79 µM (inactive).

On to `Cc1ccc(C(=O)CNc2cc(C)ccc2C)cc1`, for which the IC50 was 3.44 µM.

With `COc1ccc(S(=O)(=O)NNc2nc(C)cc(C)n2)cc1Br`, the IC50 result was “inactive”.

Turning to `O=C(Nc1nc2ccc(F)cc2s1)c1ccccn1`, the 50% inhibitory concentration (IC50) is 5.27 µM.

For `CC(C(=O)OCC(=O)c1cccc([N+](=O)[O-])c1)N1C(=O)C2C3C=CC(C3)C2C1=O` (centres undefined), the IC50 entry was “inactive”.

On to `CC1(C)CC2(CC(c3ccc(Cl)cc3)c3ccc(O)cc3O2)NC(=S)N1` (centres undefined), for which the IC50 result was “inactive”.

For `CCN(CC)S(=O)(=O)c1ccc(C(=O)Oc2coc(CSc3ncccn3)cc2=O)cc1`, the IC50 was > 79 µM (inactive).

For `O=C(CNc1cccc(Cl)c1)c1ccc(Br)cc1`, the IC50 was 3.03 µM.

For `Cc1ccnc(SCc2cc(=O)c(OC(=O)c3cccs3)co2)n1`, the IC50 is > 79 µM (inactive).

Consider `NC(=O)c1ccccc1NCC(=O)c1ccc(Cl)cc1`, for which the IC50 was 3.24 µM.

On to `O=C(Oc1coc(CSc2ncccn2)cc1=O)c1ccc(C(F)(F)F)cc1`, for which the IC50 is > 79 µM (inactive).

Consider `Cc1ccnc(SCc2cc(=O)c(OC(=O)c3ccco3)co2)n1`, for which the IC50 was > 79 µM (inactive).

`Cc1ccc(C(=O)Oc2coc(CSc3nccc(C)n3)cc2=O)cc1`: the IC50 was > 79 µM (inactive).

With `O=c1cc(CCl)occ1O`, the IC50 is > 79 µM (inactive).

As to `C=CCOc1ccc(CSc2nc(C)cc(C)n2)cc1Cl`, the IC50 was > 79 µM (inactive).

In the case of `COc1ccc(C(=O)Oc2coc(CSc3nccc(C)n3)cc2=O)cc1`, the IC50 is > 79 µM (inactive).

Turning to `COc1ccc(N=C2C(=O)Nc3ccc(C)c(Br)c32)cc1`, the IC50 is > 79 µM (inactive).

Take `O=c1cc(CSc2ccccc2)occ1O`: the IC50 is > 79 µM (inactive).

For `CCOC(=O)C1=NNC(C(=O)c2ccc(Cl)cc2)C1c1ccccc1` (centres undefined), the IC50 entry was “inactive”.

Take `Cc1cccc(N=C2C(=O)Nc3c(Cl)cccc32)c1`: the concentration for half-maximal inhibition (IC50) is 3.32 µM.

On to `O=c1c2cc(Br)ccc2[nH]c(=S)n1Cc1ccccn1`, for which the half-maximal inhibitory concentration (IC50) was 15.6 µM.

`CCCCOc1ccc(C(=O)Oc2coc(CSc3ncccn3)cc2=O)cc1`: the IC50 is > 79 µM (inactive).

Take `O=C(O)CN1C(=O)C(=O)c2ccccc21`: the IC50 is > 79 µM (inactive).

As for `O=C(Oc1coc(CSc2ncccn2)cc1=O)c1cc([N+](=O)[O-])ccc1Cl`, the IC50 result is “inactive”.

As for `O=c1cc(CSc2ccc(Cl)cc2)nc(-c2ccccn2)[nH]1`, the IC50 was 9.04 µM.

Turning to `O=C(Oc1coc(CSc2ncccn2)cc1=O)c1ccc(Cl)cc1`, the IC50 was > 79 µM (inactive).

For the compound `FC(F)(F)c1cccc(Sc2nc(-c3ccccc3)nnc2C(F)(F)F)c1`, the IC50 is 17.9 µM.

Take `CCN(CC)CC(=O)c1ccc(-c2ccccc2)cc1`: the IC50 is 10 µM.

Regarding `CC(C)Cc1nc2oc3c(Cl)ncnc3c2c2c1CCC2`, the 50% inhibitory concentration (IC50) is 15 µM.

For the compound `Cc1ccc(C)c(NCC(O)c2ccc(Cl)cc2)c1` (centres undefined), the IC50 was > 79 µM (inactive).

For the compound `Cc1c(O)ccc2c1OC1(CC2c2ccccc2Cl)CC(C)(C)NC(=O)N1` (centres undefined), the IC50 was > 79 µM (inactive).

As to `Cc1cc(C)nc(SCc2cc(=O)c(OC(=O)c3cc([N+](=O)[O-])ccc3Cl)co2)n1`, the IC50 entry is “inactive”.

For the compound `Cc1ccnc(SCc2cc(=O)c(OC(=O)c3ccc(C#N)cc3)co2)n1`, the IC50 is > 79 µM (inactive).

As for `Cc1cc(C)nc(SCc2cc(=O)c(OC(=O)c3cccc([N+](=O)[O-])c3C)co2)n1`, the IC50 is > 79 µM (inactive).

`CC1(C)CC2(CC(c3ccccc3Cl)c3ccc(OC(=O)c4ccccc4)cc3O2)NC(=S)N1` (centres undefined): the IC50 was > 79 µM (inactive).

`O=C(COC(=O)c1cccnc1)c1ccc(Cl)cc1`: the IC50 is > 79 µM (inactive).

Take `Oc1cccc(CSc2ncccn2)c1`: the IC50 is > 79 µM (inactive).

As to `COc1cc(C(=O)Oc2coc(CSc3ncccn3)cc2=O)c([N+](=O)[O-])cc1OC`, the IC50 is > 79 µM (inactive).

Regarding `Cc1ccnc(S(=O)(=O)Cc2cc(=O)c(OC(=O)c3ccc(Cl)c([N+](=O)[O-])c3)co2)n1`, the IC50 is > 79 µM (inactive).

By IC50 is commonly meant the concentration that inhibits the measured activity by half.

For the origin of these results see PubChem BioAssay AID488810 (Sanford-Burnham Center for Chemical Genomics, 2010).
